Patent publication US7217527B2, “Assay for phosphodiesterase function” (Vanderbilt University, priority 2003, dated 2007)

Legend:
crude human lung extract = target: T1, crude human lung extract (Homo sapiens, UniProt O76074); assay: [^3H]sildenafil binding in DEAE-Sephacel fractions of crude human lung extract (FIG. 5); details: 16 nM [^3H]sildenafil
T1 construct: from tissue; host or cells: human lung (explanted lung of transplant patients), supernatant fractionated on DEAE-Sephacel
Description: 5 g human lung was thawed, cut into small pieces and homogenized in 80 ml 2.5 mM potassium phosphate (pH 6.8) containing 0.25 mM EDTA, 0.025 mM IBMX, 4 mM β-mercaptoethanol, and 1 mM CaCl2 with a Cuisinart apparatus (high speed) using 3 bursts of 15 sec each at 4° C. After centrifugation in a Beckman JA-20 rotor for 30 min at 10,000×g, 72 ml supernatant was applied to a DEAE-Sephacel column (0.9×10 cm) equilibrated in KPM and the column was washed with 20 ml of KPM containing 20 mM NaCl and 1 mM CaCl2. The column was developed with a linear (20–280 mM) NaCl gradient in KPM containing 1 mM CaCl2. […] PKG activity was determined in the presence of 2 μM cGMP as described in Materials and Methods.

[1] = target: T2, isolated regulatory domain of PDE5 (Homo sapiens, UniProt O76074); assay type: binding
T2 construct: made in house
Description: Reactions were incubated on an ice water bath for 20 min. […] Tubes were each rinsed with 3 ml of the same buffer and filtered. The filter membranes were removed and placed into slots of a scintillation vial box for subsequent drying. The vial box was placed into a glassware dryer for 10 min, and dried papers were transferred to 6 ml scintillation vials. Five ml non-aqueous scintillant was added, and papers were counted in a scintillation counter.

GAF domains of PDE5 = GAF domains of PDE5 (Homo sapiens, UniProt O76074); details: cited from earlier work
PDE5 = PDE5 (Homo sapiens, UniProt O76074); details: read-out: Km for the catalytic site; cited from earlier work
[2] = tested on: second peak of cGMP PDE activity (human lung extract); details: 40 pmol/ml sildenafil; 0.4 μM [^3H]cGMP substrate
Description: PKG activity was determined in the presence of 2 μM cGMP as described in Materials and Methods.
PDE activity was determined by a modified assay (Martins et al., 1982) as described earlier (Gopal et al., 2001) using 0.4 μM [^3H]cGMP as substrate. PKG activity was determined in the presence of 2 μM cGMP as described (Gopal et al., 2001).

For `CCCc1nn(C)c2c(=O)[nH]c(-c3cc(S(=O)(=O)N4CCN(C)CC4)ccc3OCC)nc12` [[^3H]sildenafil], the “[^3H]sildenafil-binding activity other than the PDE5 peak” value (crude human lung extract) was “no other significant peak” and the “binding to isolated regulatory domain of PDE5” value [1] was “did not detectably bind”.

For `Nc1nc2c(ncn2[C@@H]2O[C@@H]3COP(=O)(O)O[C@H]3[C@H]2O)c(=O)[nH]1` [cGMP], the Kd (GAF domains of PDE5) is given as 200 nM and the Km (PDE5) is given as 5 µM.

For `CCCc1nn(C)c2c(=O)[nH]c(-c3cc(S(=O)(=O)N4CCN(C)CC4)ccc3OCC)nc12` [sildenafil], the “inhibition of second peak of cGMP PDE activity” value [2] is given as “not inhibited” and the “competition with [^3H]cGMP for binding to the GAF domains of PDE5” value (GAF domains of PDE5; even at high concentrations (Turko et al., 1999)) is given as “does not compete”.
